Data from patent US5852034A, “Benzo(5,6)cycloheptapyridine cyclic ureas and lactams useful as farnesyl protein transferase inhibitors” (Schering Corporation, priority 1997, dated 1998).

What was measured:
[1] = target: farnesyl protein transferase (Homo sapiens, UniProt P49354+P49356); assay: FPT IC50 (inhibition of farnesyl protein transferase, in vitro enzyme assay); format: biochemical; conditions: procedures described in WO 95/10516
Method: (§1) FPT IC50 (inhibition of farnesyl protein transferase, in vitro enzyme assay), COS Cell IC50 (Cell-Based Assay), GGPT IC50 (inhibition of geranylgeranyl protein transferase, in vitro enzyme assay), Cell Mat Assay, and anti-tumor activity (in vivo anti-tumor studies) are determined by the assay procedures described in WO 95/10516.

[2] = tested on: Ras processing in COS cells; assay: COS Cell IC50 (Cell-Based Assay), inhibition of Ras processing; conditions: procedures described in WO 95/10516
Method: as §1

Compound | IC50 [1] [nM] | IC50 [2] [nM]
O=C(CN1CCCC1=O)N1CCC([C@H]2c3ncc(Br)cc3CCc3cc(Cl)cc(Br)c32)CC1 [Example 1, (+)-4-(3,10-Dibromo-8-chloro-6,11-dihydro-5H-benzo[5,6]cyclohepta-[1,2-b]pyridin-11-yl)-1-[(2-oxo-1-pyrrolidinyl)acetyl]piperidine] | 4 | 500
O=C1CCCN1CCCC(=O)N1CCC([C@H]2c3ncc(Br)cc3CCc3cc(Cl)cc(Br)c32)CC1 [Example 3, (+)-4-(3,10-Dibromo-8-chloro-6,11-dihydro-5H-benzo[5,6]cyclohepta-[1,2-b]pyridin-11-yl)-1-[1-oxo-4-(2-oxo-1-pyrrolidinyl)butyl]piperidine] | 85 | –
O=C(CN1CCCCC1=O)N1CCC([C@H]2c3ncc(Br)cc3CCc3cc(Cl)cc(Br)c32)CC1 [Example 4, (+)-4-(3,10-Dibromo-8-chloro-6,11-dihydro-5H-benzo[5,6]cyclohepta-[1,2-b]pyridin-11-yl)-1-[(2-oxo-1-piperidinyl)acetyl]piperidine] | 2.8 | –
O=C1CCCCN1CCC(=O)N1CCC([C@H]2c3ncc(Br)cc3CCc3cc(Cl)cc(Br)c32)CC1 [Example 5, (+)-4-(3,10-Dibromo-8-chloro-6,11-dihydro-5H-benzo[5,6]cyclohepta-[1,2-b]pyridin-11-yl)-1-[1-oxo-3-(2-oxo-1-piperidinyl)propyl]piperidine] | 19 | –
O=C1CCCCN1CCCC(=O)N1CCC([C@H]2c3ncc(Br)cc3CCc3cc(Cl)cc(Br)c32)CC1 [Example 6, (+)-4-(3,10-Dibromo-8-chloro-6,11-dihydro-5H-benzo[5,6]cyclohepta-[1,2-b]pyridin-11-yl)-1-[1-oxo-4-(2-oxo-1-piperidinyl)butyl]piperidine] | 80 | –
O=C(CN1CCNC1=O)N1CCC([C@H]2c3ncc(Br)cc3CCc3cc(Cl)cc(Br)c32)CC1 [Example 7, (+)-4-(3,10-Dibromo-8-chloro-6,11-dihydro-5H-benzo[5,6]cyclohepta-[1,2-b]pyridin-11-yl)-1-[(2-oxo-1-imidazolidinyl)acetyl]piperidine] | 23 | –
O=C(CCCN1CCNC1=O)N1CCC([C@H]2c3ncc(Br)cc3CCc3cc(Cl)cc(Br)c32)CC1 [Example 9] | 16 | –
O=C(CN1CCCNC1=O)N1CCC([C@H]2c3ncc(Br)cc3CCc3cc(Cl)cc(Br)c32)CC1 [Example 10, (+)-4-(3,10-Dibromo-8-chloro-6,11-dihydro-5H-benzo[5,6]cyclohepta-[1,2-b]pyridin-11-yl)-1-[(hexahydro-2-oxo-1-pyrimidinyl)acetyl]piperidine] | 3.2 | 16
O=C(CCN1CCCNC1=O)N1CCC([C@H]2c3ncc(Br)cc3CCc3cc(Cl)cc(Br)c32)CC1 [Example 11, (+)-4-(3,10-Dibromo-8-chloro-6,11-dihydro-5H-benzo[5,6]cyclohepta-[1,2-b]pyridin-11-yl)-1-[1-oxo-3-(hexahydo-2-oxo-1-pyrimidinyl)-oxopropyl]piperidine] | 20 | –
O=C(CCCN1CCCNC1=O)N1CCC([C@H]2c3ncc(Br)cc3CCc3cc(Cl)cc(Br)c32)CC1 [Example 12, (+)-4-(3,10-Dibromo-8-chloro-6,11-dihydro-5H-benzo[5,6]cyclohepta[1,2-b]pyridin-11-yl)-1-[4-(hexahydo-2-oxo-1-pyrimidinyl)oxobutyl]piperidine] | 56 | –
